From patent US9328083B2, “2-aminated methylene or 2-esterified methylene tanshinone derivatives, and preparation method and application thereof” (HANGZHOU BENSHENG PHARMACEUTICAL CO., LTD., priority 2011, dated 2016)
Values after ≈ are worked out from the molar mass of the structure shown.

Legend:
[1] = tested on: NB4 (acute promyelocytic leukemia, AML); assay: MTT growth inhibition of leukemia cells, 72 h; assay type: cell-based, human; settings: Homo sapiens, NB4, 72 h
Description: (§1) Leukemia cell lines: leukemia cell lines: K562/adr (drug-resistant, chronic myeloid leukemia, CML), NB4 (acute promyelocytic leukemia, AML), Kasumi-1 (acute myeloid leukemia M2 type, AML-M2), and Jurkat (acute lymphoblastic leukemia, ALL), all of which are donated by Cancer Research Institute of Zhejiang University, China; and H9 (acute lymphoblastic leukemia, ALL), which is purchased from China Center for Type Culture Collection (CCTCC).
(§2) The standard sample of tanshinone I (TA) and the 2-aminated methylene or 2-esterified methylene tanshinone I derivatives of the present invention are sufficiently dissolved with dimethylsulfoxide to produce a stock solution of 10 mg/mL, which is refrigerated at 4° C. and stored in dark, and is diluted with a cell culture medium to the desired concentration prior to experimentation.
(§3) Obtaining 6000 well-growing leukemia cells and inoculating them into wells of a 96-well cell culture plate. The culture medium is the RPMI-1640 cell culture medium containing 10% fetal bovine serum. After adding on the second day the 2-aminated methylene or 2-esterified methylene tanshinone I derivatives of different concentrations and mixing uniformly, placing the plate in a carbon dioxide cell incubator (5% CO2) at 37° C. and incubated for 72 hours. Then the viable cell concentration is determined by MTT method.

[2] = tested on: K562/adr (drug-resistant, chronic myeloid leukemia, CML); assay: MTT growth inhibition of leukemia cells, 72 h; assay type: cell-based, human; settings: Homo sapiens, K562/Adr
Description: as §1, §2, §3

[3] = tested on: H9 (acute lymphoblastic leukemia, ALL); assay: MTT growth inhibition of leukemia cells, 72 h; assay type: cell-based, human; settings: Homo sapiens, H9, 72 h
Description: as §1, §2, §3

[4] = tested on: Jurkat (acute lymphoblastic leukemia, ALL); assay: MTT growth inhibition of leukemia cells, 72 h; assay type: cell-based, human; settings: Homo sapiens, 72 h
Description: as §1, §2, §3

[5] = tested on: Kasumi-1 (acute myeloid leukemia M2 type, AML-M2); assay: MTT growth inhibition of leukemia cells, 72 h; assay type: cell-based, human; settings: Homo sapiens, Kasumi-1, 72 h
Description: as §1, §2, §3

A549 (human lung cancer) = assay: MTT growth inhibition of human solid tumor cells, 72 h; assay type: cell-based; settings: Homo sapiens, A549, 72 h
Description: (§4) Hep-2 (laryngeal carcinoma), A549 (human lung cancer), CaES-17 (esophageal cancer cell), PC-3 (prostate cancer), CNE (nasopharyngeal carcinoma cell), and SK-OV-3 (ovarian cancer cell), all of which are purchased from China Center For Type Culture Collection; RKO (human colon adenocarcinoma cell), MGC 803 (human gastric cancer cell), MG63 (osteosarcoma) and U87 MG (malignant glioma cell), all of which are purchased from Fuxiang Bio-tech Co. Ltd., Shanghai, China; PANC-1 (pancreatic cancer), Hep G2 (human liver cancer cell), Becap37 (human breast cancer cell) and Hela (human cervical cancer cell), all of which are donated by Cancer Research Institute of Zhejiang University, China.
as §2
(§5) Obtaining 4000 well-growing human solid tumor cells and inoculating them into wells of a 96-well cell culture plate. The culture medium is DMEM High Glucose cell culture medium containing 10% fetal bovine serum. The plate is placed in a carbon dioxide cell incubator (5% CO2) at 37° C. and incubated for 24 hours. After adding the 2-aminated methylene or 2-esterified methylene tanshinone I derivatives of different concentrations and mixing uniformly, the plate is placed in a carbon dioxide cell incubator (5% CO2) at 37° C. and incubated for 72 hours. Then the viable cell concentration is determined by the MTT method.

[6] = tested on: SK-OV-3 (ovarian cancer cell); assay: as above; assay type: cell-based; settings: Homo sapiens, SK-OV-3, 72 h
Description: as §4, §2, §5

[7] = tested on: U87 MG (malignant glioma cell); assay: as above; assay type: cell-based; settings: Homo sapiens, U-87 MG, U87-MG, 72 h
Description: as §4, §2, §5

[8] = tested on: Becap37 (human breast cancer cell); assay: as above; assay type: cell-based; settings: Homo sapiens, Becap-37, 72 h
Description: as §4, §2, §5

PC-3 (prostate cancer) = assay: as above; assay type: cell-based; settings: Homo sapiens, PC-3, 72 h
Description: as §4, §2, §5

[9] = tested on: PANC-1 (pancreatic cancer); assay: as above; assay type: cell-based; settings: Homo sapiens, PANC-1, 72 h
Description: as §4, §2, §5

[10] = tested on: CNE (nasopharyngeal carcinoma cell); assay: as above; assay type: cell-based; settings: Homo sapiens
Description: as §4, §2, §5

MG63 (osteosarcoma) = assay: as above; assay type: cell-based; settings: Homo sapiens, MG-63, 72 h
Description: as §4, §2, §5

[11] = tested on: RKO (human colon adenocarcinoma cell); assay: as above; assay type: cell-based; settings: Homo sapiens
Description: as §4, §2, §5

[12] = tested on: CaES-17 (esophageal cancer cell); assay: as above; assay type: cell-based; settings: Homo sapiens, CaEs17, CaEs-17, 72 h
Description: as §4, §2, §5

[13] = tested on: Hep G2 (human liver cancer cell); assay: as above; assay type: cell-based; settings: Homo sapiens, HepG2, Hep G2, 72 h
Description: as §4, §2, §5

[14] = tested on: MGC 803 (human gastric cancer cell); assay: as above; assay type: cell-based; settings: Homo sapiens, MGC-803, 72 h
Description: as §4, §2, §5

[15] = tested on: Hep-2 (laryngeal carcinoma); assay: as above; assay type: cell-based; settings: Homo sapiens, HEp-2, 72 h
Description: as §4, §2, §5

[16] = tested on: Hela (human cervical cancer cell); assay: as above; assay type: cell-based; settings: Homo sapiens, HeLa, 72 h
Description: as §4, §2, §5

[17] = tested on: RPMI8226 (multiple myeloma); assay: MTT growth inhibition of multiple myeloma cells, 72 h; assay type: cell-based, human; settings: Homo sapiens, RPMI 8226, 72 h
Description: Myeloma cell lines: RPMI8226 (multiple myeloma), purchased from Fuxiang Bio-tech Co. Ltd., Shanghai, China.
as §2
Obtaining 6000 well-growing myeloma cells as above and inoculating them into wells of a 96-well cell culture plate. The culture medium is the 1640 cell culture medium containing 10% fetal bovine serum. After adding the 2-aminated methylene or 2-esterified methylene tanshinone I derivatives of different concentrations and mixing uniformly, placing the plate in a carbon dioxide cell incubator (5% CO2) at 37° C. and incubated for 72 hours. Then the viable cell concentration is determined by MTT method.

Cc1c(CN(C)CCOC(=O)CCC(=O)O)oc2c1C(=O)C(=O)c1c-2ccc2c(C)cccc12 [BS-TA-73]
IC50 ([1]; read-out: IC50): 0.21 µg/mL (≈ 0.453 µM)
IC90 ([1]; read-out: IC90): 0.68 µg/mL (≈ 1.47 µM)
IC50 ([2]; read-out: IC50): 1.38 µg/mL (≈ 2.98 µM)
IC90 ([2]; read-out: IC90): 2.74 µg/mL (≈ 5.91 µM)
IC50 ([3]; read-out: IC50): 0.19 µg/mL (≈ 0.41 µM)
IC90 ([3]; read-out: IC90): 0.97 µg/mL (≈ 2.09 µM)
IC50 ([4]; read-out: IC50): 0.98 µg/mL (≈ 2.11 µM)
IC90 ([4]; read-out: IC90): 3.4 µg/mL (≈ 7.34 µM)
IC50 ([5]; read-out: IC50): 0.27 µg/mL (≈ 0.583 µM)
IC90 ([5]; read-out: IC90): 0.73 µg/mL (≈ 1.58 µM)
IC50 (A549 (human lung cancer); read-out: IC50): 1.72 µg/mL (≈ 3.71 µM)
IC90 (A549 (human lung cancer); read-out: IC90): 4.79 µg/mL (≈ 10.3 µM)
IC50 ([6]; read-out: IC50): 3.54 µg/mL (≈ 7.64 µM)
IC90 ([6]; read-out: IC90): 7.27 µg/mL (≈ 15.7 µM)
IC50 ([7]; read-out: IC50): 1.19 µg/mL (≈ 2.57 µM)
IC90 ([7]; read-out: IC90): 3.44 µg/mL (≈ 7.42 µM)
IC50 ([8]; read-out: IC50): 1.06 µg/mL (≈ 2.29 µM)
IC90 ([8]; read-out: IC90): 1.91 µg/mL (≈ 4.12 µM)
IC50 (PC-3 (prostate cancer); read-out: IC50): 1.73 µg/mL (≈ 3.73 µM)
IC90 (PC-3 (prostate cancer); read-out: IC90): 7.04 µg/mL (≈ 15.2 µM)
IC50 ([9]; read-out: IC50): 1.07 µg/mL (≈ 2.31 µM)
IC90 ([9]; read-out: IC90): 5 µg/mL (≈ 10.8 µM)
IC50 ([10]; read-out: IC50): 1.38 µg/mL (≈ 2.98 µM)
IC90 ([10]; read-out: IC90): 3.7 µg/mL (≈ 7.98 µM)
IC50 (MG63 (osteosarcoma); read-out: IC50): 1.01 µg/mL (≈ 2.18 µM)
IC90 (MG63 (osteosarcoma); read-out: IC90): 3.71 µg/mL (≈ 8 µM)
IC50 ([11]; read-out: IC50): 0.2 µg/mL (≈ 0.432 µM)
IC90 ([11]; read-out: IC90): 0.87 µg/mL (≈ 1.88 µM)
IC50 ([12]; read-out: IC50): 1.14 µg/mL (≈ 2.46 µM)
IC90 ([12]; read-out: IC90): 1.86 µg/mL (≈ 4.01 µM)
IC50 ([13]; read-out: IC50): 1.39 µg/mL (≈ 3 µM)
IC90 ([13]; read-out: IC90): 4.64 µg/mL (≈ 10 µM)
IC50 ([14]; read-out: IC50): 0.84 µg/mL (≈ 1.81 µM)
IC90 ([14]; read-out: IC90): 4.9 µg/mL (≈ 10.6 µM)
IC50 ([15]; read-out: IC50): 0.81 µg/mL (≈ 1.75 µM)
IC90 ([15]; read-out: IC90): 3.21 µg/mL (≈ 6.93 µM)
IC50 ([16]; read-out: IC50): 1 µg/mL (≈ 2.16 µM)
IC90 ([16]; read-out: IC90): 3.81 µg/mL (≈ 8.22 µM)
IC50 ([17]; read-out: IC50): 0.38 µg/mL (≈ 0.82 µM)
IC90 ([17]; read-out: IC90): 1.55 µg/mL (≈ 3.34 µM)
